Test results as given in patent US20170066759A1, “AROMATIC 5-MEMBERED HETEROCYCLIC DERIVATIVE HAVING TRPV4-INHIBITING ACTIVITY” (Shionogi & Co., Ltd., priority 2012, published 2017).
pIC50: −log10 of the molar value. Like-named read-outs stand apart in the source and are kept apart here.

Molecular target: T1, human TRPV4 (hTRPV4/CHO cells) (Homo sapiens, UniProt Q9HBA0)
T1 construct: expressed in transfected cells; host or cells: CHO-K1
Assay: Test Example 1: TRPV4 inhibitory activity (IC50 value), 4α-PDD stimulation, Fluo4 calcium fluorescence (FLIPR TETRA)
Assay type: cell-based

[1] = Test Example 1, 4α-PDD stimulation, read-out: Test 1 IC50

T1 sequence (Q9HBA0 whole entry): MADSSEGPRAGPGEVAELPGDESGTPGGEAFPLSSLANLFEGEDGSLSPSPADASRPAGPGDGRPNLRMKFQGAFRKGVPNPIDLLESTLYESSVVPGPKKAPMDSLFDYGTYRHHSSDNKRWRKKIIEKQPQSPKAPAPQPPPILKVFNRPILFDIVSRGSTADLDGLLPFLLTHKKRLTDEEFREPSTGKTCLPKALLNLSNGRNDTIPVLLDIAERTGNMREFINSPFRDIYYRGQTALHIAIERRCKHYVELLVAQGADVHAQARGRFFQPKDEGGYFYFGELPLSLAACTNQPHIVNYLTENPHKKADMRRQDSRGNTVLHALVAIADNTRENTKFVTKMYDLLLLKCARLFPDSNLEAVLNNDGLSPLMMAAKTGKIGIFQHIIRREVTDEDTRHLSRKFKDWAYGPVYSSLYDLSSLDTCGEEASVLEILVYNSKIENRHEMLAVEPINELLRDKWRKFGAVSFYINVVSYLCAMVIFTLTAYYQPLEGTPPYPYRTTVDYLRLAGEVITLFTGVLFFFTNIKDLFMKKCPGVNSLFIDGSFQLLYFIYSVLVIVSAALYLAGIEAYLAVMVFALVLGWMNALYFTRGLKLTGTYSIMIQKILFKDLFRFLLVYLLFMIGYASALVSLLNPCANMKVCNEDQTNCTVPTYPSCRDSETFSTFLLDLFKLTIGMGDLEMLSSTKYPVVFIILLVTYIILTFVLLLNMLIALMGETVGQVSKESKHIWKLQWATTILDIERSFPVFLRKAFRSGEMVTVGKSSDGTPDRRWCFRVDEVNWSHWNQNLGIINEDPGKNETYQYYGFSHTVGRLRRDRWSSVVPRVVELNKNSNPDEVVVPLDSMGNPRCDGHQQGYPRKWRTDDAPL

Structure (SMILES)	pIC50 [1]	pIC50 (1 μmol/L 4α-PDD, Fluo4-AM, read-out: TRPV4 inhibitory activity (IC50 value))
Cc1nc(C)c(-c2csc(NC(=O)Cc3ccc(C(F)(F)F)cn3)n2)s1 [Compound I-104]	> 7.00	–
CON(C)C(=O)c1nc(C)c(-c2csc(NC(=O)Cc3c(F)cccc3F)n2)s1 [Compound I-105]	5.10 to 6.00	–
Cc1nc(C(N)=O)sc1-c1csc(NC(=O)C2CC2(F)F)n1 (centres unmarked) [Compound I-106]	5.10 to 6.00	–
Cc1nc(C(=O)NC#N)sc1-c1csc(NC(=O)Cc2c(F)cccc2F)n1 [Compound I-108]	5.10 to 6.00	–
Cc1nc(C(F)F)sc1-c1csc(NC(=O)C2CC2)n1 [Compound I-109]	5.10 to 6.00	–
Cc1nc(C(F)F)sc1-c1csc(NC(=O)Cn2cc(Cl)cn2)n1 [Compound I-110]	6.00 to 7.00	–
Cc1nc(C(F)F)sc1-c1csc(NC(=O)C2CC(OCc3ccccc3)C2)n1 (centres unmarked) [Compound I-111]	5.10 to 6.00	–
Cc1nc(C(F)F)sc1-c1csc(NC(=O)C2CC2(F)F)n1 (centres unmarked) [Compound I-112]	5.10 to 6.00	–
CNC(=O)c1nc(C)c(-c2csc(NC(=O)Cc3c(F)cccc3F)n2)s1 [Compound I-113]	5.10 to 6.00	–
Cc1nc(C(=O)N(C)C)sc1-c1csc(NC(=O)Cc2c(F)cccc2F)n1 [Compound I-114]	5.10 to 6.00	–
Cc1nc(C(=O)NS(C)(=O)=O)sc1-c1csc(NC(=O)Cc2c(F)cccc2F)n1 [Compound I-115]	5.10 to 6.00	–
Cc1nc(C)c(-c2csc(NC(=O)Cc3ccc(S(=O)(=O)C(F)(F)F)cc3)n2)s1 [Compound I-117]	6.00 to 7.00	–
Cc1nc(C)c(-c2csc(NC(=O)Cc3ccc(C(F)(F)F)cn3)n2)s1 [Compound I-118]	6.00 to 7.00	–
Cc1nc(C)c(-c2csc(NC(=O)Cc3ccc(S(C)(=O)=O)cc3)n2)s1 [Compound I-119]	5.10 to 6.00	–
Cc1nc(C)c(-c2csc(NC(=O)C3CC3(F)F)n2)s1 (centres unmarked) [Compound I-120]	5.10 to 6.00	–
Cc1nc(C)c(-c2csc(NC(=O)Cc3ccccc3C#N)n2)s1 [Compound I-121]	6.00 to 7.00	–
Cc1nc(C)c(-c2csc(NC(=O)Cc3ccc(S(=O)(=O)C(C)C)cc3)n2)s1 [Compound I-122]	6.00 to 7.00	–
Cc1nc(C)c(-c2csc(NC(=O)Cn3cc(C#N)cn3)n2)s1 [Compound I-123]	5.10 to 6.00	–
Cc1nc(C)c(-c2csc(NC(=O)Cn3cc(C(F)(F)F)cn3)n2)s1 [Compound I-124]	> 7.00	–
Cc1nc(C(=O)NCCO)sc1-c1csc(NC(=O)Cc2c(F)cccc2F)n1 [Compound I-125]	5.10 to 6.00	–

Structure (SMILES)	pIC50 [1]	pIC50 (1 μmol/L 4α-PDD, Fluo4-AM, read-out: TRPV4 inhibitory activity (IC50 value))
Cc1nc(C(=O)NCCN(C)C)sc1-c1csc(NC(=O)Cc2c(F)cccc2F)n1 [Compound I-126]	5.10 to 6.00	–
Cc1nc(C(N)=O)sc1-c1csc(NC(=O)Cn2cc(Cl)cn2)n1 [Compound I-127]	6.00 to 7.00	–
Cc1nc(C(C)(C)O)c(-c2csc(NC(=O)Cc3c(F)cccc3F)n2)s1 [Compound I-128]	6.00 to 7.00	–
CC(=O)c1nc(C)sc1-c1csc(NC(=O)Cc2c(F)cccc2F)n1 [Compound I-129]	6.00 to 7.00	–
Cc1nc(C(C)O)c(-c2csc(NC(=O)Cc3c(F)cccc3F)n2)s1 (centres unmarked) [Compound I-130]	6.00 to 7.00	–
Cc1nc(C)c(-c2csc(NC(=O)Cn3cc(Br)cn3)n2)s1 [Compound I-132]	> 7.00	–
Cc1nc(C(O)CO)sc1-c1csc(NC(=O)Cc2c(F)cccc2F)n1 (centres unmarked) [Compound I-133]	5.10 to 6.00	–
Cc1nc(C)c(-c2csc(NC(=O)Cn3cc(-c4ccccc4)cn3)n2)s1 [Compound I-134]	> 7.00	–
Cc1nc(C(O)CC(=O)O)sc1-c1csc(NC(=O)Cc2c(F)cccc2F)n1 (centres unmarked) [Compound I-135]	5.10 to 6.00	–
Cc1nc(CO)sc1-c1csc(NC(=O)Cn2cc(C(F)(F)F)cn2)n1 [Compound I-136]	> 7.00	–
Cc1nc(C)c(-c2csc(NC(=O)Cc3cccc(OC(F)(F)F)c3)n2)o1 [Compound I-137]	6.00 to 7.00	–
Cc1nc(C)c(-c2csc(NC(=O)Cc3cccc(C#N)c3)n2)o1 [Compound I-138]	5.10 to 6.00	–
Cc1nc(C)c(-c2csc(NC(=O)Cc3ccc(C(F)(F)F)cc3)n2)o1 [Compound I-139]	6.00 to 7.00	–
Cc1nc(C)c(-c2csc(NC(=O)Cn3cc(Cl)cn3)n2)o1 [Compound I-140]	5.10 to 6.00	–
Cc1nc(C)c(-c2csc(NC(=O)Cc3ccc(S(=O)(=O)CC(F)(F)F)cc3)n2)s1 [Compound I-141]	> 7.00	–
Cc1nc(CO)sc1-c1csc(NC(=O)Cc2ccc(S(=O)(=O)C(F)(F)F)cc2)n1 [Compound I-142]	> 7.00	–
Cc1nc(C)c(-c2csc(NC(=O)Cc3ccc(S(=O)(=O)CC(F)F)cc3)n2)s1 [Compound I-143]	6.00 to 7.00	–
Cc1nc(C)c(-c2csc(NC(=O)CN3CCN(c4ccccc4)CC3)n2)s1 [Compound I-144]	6.00 to 7.00	–
Cc1nc(C)c(-c2csc(NC(=O)Cn3cc(-c4ccccc4Cl)cn3)n2)s1 [Compound I-145]	> 7.00	–
Cc1nc(C)c(-c2csc(NC(=O)Cn3cc(-c4cccc(Cl)c4)cn3)n2)s1 [Compound I-146]	> 7.00	–

Structure (SMILES)	pIC50 [1]	pIC50 (1 μmol/L 4α-PDD, Fluo4-AM, read-out: TRPV4 inhibitory activity (IC50 value))
Cc1nc(C)c(-c2csc(NC(=O)Cn3cc(-c4ccc(Cl)cc4)cn3)n2)s1 [Compound I-147]	> 7.00	–
Cc1nc(C)c(-c2csc(NC(=O)Cn3cc(-c4cccnc4)cn3)n2)s1 [Compound I-148]	6.00 to 7.00	–
Cc1nc(C)c(-c2csc(NC(=O)Cn3cc(-c4cccc(N(C)C)c4)cn3)n2)s1 [Compound I-149]	> 7.00	–
Cc1nc(C)c(-c2csc(NC(=O)Cn3cc(-c4cccc(S(C)(=O)=O)c4)cn3)n2)s1 [Compound I-150]	> 7.00	–
Cc1nc(C)c(-c2csc(NC(=O)Cn3cc(-c4ccc(S(C)(=O)=O)cc4)cn3)n2)s1 [Compound I-151]	6.00 to 7.00	–
Cc1nc(C)c(-c2csc(NC(=O)CN3CCC(c4ccccc4)CC3)n2)s1 [Compound I-152]	6.00 to 7.00	–
Cc1nc(C)c(-c2csc(NC(=O)CN3CCC(O)(c4ccccc4)CC3)n2)s1 [Compound I-153]	5.10 to 6.00	–
Cc1nc(C)c(-c2csc(NC(=O)CN3CCCC3c3ccccc3)n2)s1 (centres unmarked) [Compound I-154]	6.00 to 7.00	–
Cc1nc(C)c(-c2csc(NC(=O)CN3CCC(c4ccccc4)C3)n2)s1 (centres unmarked) [Compound I-155]	6.00 to 7.00	–
Cc1nc(C)c(-c2csc(NC(=O)Cc3ccc(S(=O)(=O)N4CCCCC4)cc3)n2)s1 [Compound I-156]	> 7.00	7.52
Cc1nc(C)c(-c2csc(NC(=O)Cc3ccc(S(=O)(=O)N4CCOCC4)cc3)n2)s1 [Compound I-157]	6.00 to 7.00	–
COc1ccc(N(C)S(=O)(=O)c2ccc(CC(=O)Nc3nc(-c4sc(C)nc4C)cs3)cc2)cc1 [Compound I-158]	> 7.00	–
Cc1nc(C)c(-c2csc(NC(=O)Cc3ccc(S(=O)(=O)N(C)c4ccccc4)cc3)n2)s1 [Compound I-159]	> 7.00	–
Cc1nc(C)c(-c2csc(NC(=O)Cc3ccc(S(=O)(=O)N(C)c4ccc(Cl)cc4)cc3)n2)s1 [Compound I-160]	> 7.00	–
Cc1nc(C)c(-c2csc(NC(=O)Cc3ccc(S(=O)(=O)N(C)c4cccc(Cl)c4)cc3)n2)s1 [Compound I-161]	> 7.00	–
Cc1nc(C)c(-c2csc(NC(=O)Cc3ccc(S(=O)(=O)N(C)c4ccccc4Cl)cc3)n2)s1 [Compound I-162]	> 7.00	–
Cc1nc(C)c(-c2csc(NC(=O)Cc3ccc(S(=O)(=O)N(C)c4ccc(C#N)cc4)cc3)n2)s1 [Compound I-163]	> 7.00	–
Cc1nc(C)c(-c2csc(NC(=O)Cc3ccc(S(=O)(=O)Nc4ccccc4)cc3)n2)s1 [Compound I-164]	6.00 to 7.00	–
